US8513271B2, “Pyrimidine compounds as delta opioid receptor modulators” (Janssen Pharmaceutica, NV, priority 2009, dated 2013)
Read-outs that look alike come from different tables or passages of the source.

Molecular target: T1, delta opioid receptor (Mus musculus, UniProt P32300)
T1 construct: NG108-15 cell membranes were purchased from Applied Cell Sciences (Rockville, Md.); host or cells: NG108-15 cell membranes
Experiment: [35S]GTPγS binding assay in NG108-15 cell membranes (delta opioid functional assay), 200 nM screen
Format: biochemical
Conditions: NG108-15 cell membranes; for GTPγS δ-RelEfficacy @200 nM: 200 nM test compound, relative to calculated max of SNC80 dose response curve; for GTPγS δ-RelEfficacy @200 nM / EC50: averages if tested more than once; for GTPγS δ-opioid receptor Rel Efficacy: relative efficacy from dose response

[1] = read-out: GTPγS δ-opioid receptor EC50
[2] = GTPγS δ-opioid receptor EC50 (μM)

T1 sequence (P32300 whole entry): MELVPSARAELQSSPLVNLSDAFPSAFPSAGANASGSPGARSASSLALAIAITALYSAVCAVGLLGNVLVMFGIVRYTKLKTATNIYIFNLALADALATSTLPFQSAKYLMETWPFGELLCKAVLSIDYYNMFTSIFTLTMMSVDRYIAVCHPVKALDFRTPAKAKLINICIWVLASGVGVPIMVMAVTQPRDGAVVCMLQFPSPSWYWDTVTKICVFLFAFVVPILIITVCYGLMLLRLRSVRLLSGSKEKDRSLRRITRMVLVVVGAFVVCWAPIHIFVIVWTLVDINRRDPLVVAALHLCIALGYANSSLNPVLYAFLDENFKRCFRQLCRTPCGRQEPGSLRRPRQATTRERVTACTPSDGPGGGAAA

FCc1ccc(Oc2nc(-c3cccnc3)ncc2NC[C@@H]2CCCN2)cc1 [Cpd 217, [4-(4-Fluoromethyl-phenoxy)-2-pyridin-3-yl-pyrimidin-5-yl]-pyrrolidin-2-(S)-ylmethyl-amine]
GTPγS δ-RelEfficacy @200 nM: 0.480
EC50 [1]: 0.612 µM
GTPγS δ-opioid receptor Rel Efficacy: 0.882

Cc1cc(Oc2nc(-c3cncc(C#N)c3)ncc2NC[C@@H]2CCCN2)ccc1F [Cpd 218]
GTPγS δ-RelEfficacy @200 nM: 0.642
EC50 [1]: 0.353 µM
GTPγS δ-opioid receptor Rel Efficacy: 0.960

Cc1cc(Oc2nc(-c3cncc(F)c3)ncc2NC[C@@H]2CCCN2)ccc1F [Cpd 219]
GTPγS δ-RelEfficacy @200 nM: 0.475
EC50 [1]: > 1 µM

N#Cc1cncc(-c2ncc(NC[C@@H]3CCCN3)c(Oc3ccc(C(F)(F)F)cc3)n2)c1 [Cpd 220]
GTPγS δ-RelEfficacy @200 nM: 0.457
EC50 [1]: 0.454 µM
GTPγS δ-opioid receptor Rel Efficacy: 0.890

Fc1cncc(-c2ncc(NC[C@@H]3CCCN3)c(Oc3ccc(C(F)(F)F)cc3)n2)c1 [Cpd 221]
GTPγS δ-RelEfficacy @200 nM: 0.324

CS(=O)(=O)c1ccc(Oc2nc(-c3cncc(F)c3)ncc2NC[C@@H]2CCCN2)cc1 [Cpd 222]
GTPγS δ-RelEfficacy @200 nM: 0.284

O=CNc1ccc(Oc2nc(-c3cncc(F)c3)ncc2NC[C@@H]2CCCN2)cc1 [Cpd 223]
GTPγS δ-RelEfficacy @200 nM: 0.802
EC50 [1]: 0.152 µM
GTPγS δ-opioid receptor Rel Efficacy: 0.986

COc1ccc(Oc2nc(-c3cccnc3)ncc2N[C@@H]2CCNC2)cc1 [Cpd 224]
GTPγS δ-RelEfficacy @200 nM: 0.460
EC50 [1]: 0.214 µM
GTPγS δ-opioid receptor Rel Efficacy: 1.104

COc1ccc(Oc2nc(-c3cccnc3)ncc2NC[C@@H]2CCCCN2)cc1 [Cpd 225]
GTPγS δ-RelEfficacy @200 nM: 0.260
EC50 [1]: 0.483 µM
GTPγS δ-opioid receptor Rel Efficacy: 0.718

COc1ccc(Oc2nc(-c3cccnc3)ncc2NC2CNC2)cc1 [Cpd 226]
GTPγS δ-RelEfficacy @200 nM: 0.320

Cc1ccccc1Oc1nc(-c2cncc(Cl)c2)ncc1NC[C@@H]1CCCN1 [Cpd 227]
GTPγS δ-RelEfficacy @200 nM: 0.480
EC50 [1]: 0.246 µM
GTPγS δ-opioid receptor Rel Efficacy: 1.093

CC(=O)Oc1cccc(Oc2nc(-c3cncc(C#N)c3)ncc2NC[C@@H]2CCCN2)c1 [Cpd 228]
GTPγS δ-RelEfficacy @200 nM: 1.039
EC50 [2]: 0.006 µM
GTPγS δ-opioid receptor Rel Efficacy: 1.082

Clc1cncc(-c2ncc(NC[C@@H]3CCCN3)c(Oc3ccccc3Cl)n2)c1 [Cpd 229]
GTPγS δ-RelEfficacy @200 nM: 0.715
EC50 [2]: 0.061 µM
GTPγS δ-opioid receptor Rel Efficacy: 0.890

N#Cc1cncc(-c2ncc(NC[C@@H]3CCCN3)c(Oc3ccccc3Cl)n2)c1 [Cpd 230]
GTPγS δ-RelEfficacy @200 nM: 0.847

N#Cc1cncc(-c2ncc(NC[C@@H]3CCCN3)c(Oc3cccc(O)c3)n2)c1 [Cpd 231]
GTPγS δ-RelEfficacy @200 nM: 1.159
EC50 [2]: 0.005 µM
GTPγS δ-opioid receptor Rel Efficacy: 1.113

COc1cncc(-c2ncc(NC[C@@H]3CCCN3)c(Oc3ccccc3Cl)n2)c1 [Cpd 232]
GTPγS δ-RelEfficacy @200 nM: 0.679
EC50 [1]: 0.143 µM
GTPγS δ-opioid receptor Rel Efficacy: 1.021

CSc1cncc(-c2ncc(NC[C@@H]3CCCN3)c(Oc3ccccc3Cl)n2)c1 [Cpd 233]
GTPγS δ-RelEfficacy @200 nM: 0.549

COCCOc1ccc(Oc2nc(-c3cncc(SC)c3)ncc2NC[C@@H]2CCCN2)cc1 [Cpd 241]
GTPγS δ-RelEfficacy @200 nM: 0.381

COCCOc1ccc(Oc2nc(-c3cncc(C)c3)ncc2NC[C@@H]2CCCN2)cc1 [Cpd 242]
GTPγS δ-RelEfficacy @200 nM: 0.413

COCCOc1ccc(Oc2nc(-c3cncc(OC)c3)ncc2NC[C@@H]2CCCN2)cc1 [Cpd 243]
GTPγS δ-RelEfficacy @200 nM: 0.433

COCCOc1ccc(Oc2nc(-c3cccnc3)ncc2NC[C@@H]2CCCN2)cc1 [Cpd 244]
GTPγS δ-RelEfficacy @200 nM: 0.354

COc1ccc(Oc2nc(-c3cncc(OC)c3)ncc2N[C@@H]2CCCNC2)cc1 [Cpd 246]
EC50 [2]: 0.078 µM
GTPγS δ-opioid receptor Rel Efficacy: 1.043

CSc1cncc(-c2ncc(NC[C@@H]3CCCN3)c(Oc3cccc(OC(C)=O)c3)n2)c1 [Cpd 248]
GTPγS δ-RelEfficacy @200 nM: 0.754
EC50 [2]: 0.047 µM
GTPγS δ-opioid receptor Rel Efficacy: 1.084

COc1cncc(-c2ncc(NC[C@@H]3CCCN3)c(Oc3cccc(O)c3)n2)c1 [Cpd 249]
GTPγS δ-RelEfficacy @200 nM: 1.000
EC50 [2]: 0.011 µM
GTPγS δ-opioid receptor Rel Efficacy: 0.940

COc1cncc(-c2ncc(NC[C@@H]3CCCN3)c(Oc3cccc(OC(C)=O)c3)n2)c1 [Cpd 250, Acetic acid 3-{2-(5-methoxy-pyridin-3-yl)-5-[(pyrrolidin-2-(S)-ylmethyl)-amino]-pyrimidin-4-yloxy}-phenyl ester]
GTPγS δ-RelEfficacy @200 nM: 0.912
EC50 [2]: 0.026 µM
GTPγS δ-opioid receptor Rel Efficacy: 1.022

CC(=O)Oc1cccc(Oc2nc(-c3cncc(C)c3)ncc2NC[C@@H]2CCCN2)c1 [Cpd 251]
GTPγS δ-RelEfficacy @200 nM: 0.955
EC50 [2]: 0.015 µM
GTPγS δ-opioid receptor Rel Efficacy: 1.145

COc1ccc(Oc2nc(-c3cncc(SC)c3)ncc2N[C@@H]2CCCNC2)cc1 [Cpd 254]
EC50 [2]: 0.151 µM
GTPγS δ-opioid receptor Rel Efficacy: 0.928

COc1ccc(Oc2nc(-c3cncc(C)c3)ncc2N[C@H]2CCNC2)cc1 [Cpd 257]
EC50 [2]: 0.095 µM
GTPγS δ-opioid receptor Rel Efficacy: 0.830

COc1ccc(Oc2nc(-c3cncc(C)c3)ncc2N[C@@H]2CCCNC2)cc1 [Cpd 258]
EC50 [2]: 0.075 µM
GTPγS δ-opioid receptor Rel Efficacy: 0.835

COc1ccc(Oc2nc(-c3cncc(C)c3)ncc2N[C@H]2CCCNC2)cc1 [Cpd 259]
EC50 [2]: 0.0749 µM
GTPγS δ-opioid receptor Rel Efficacy: 1.030

Cc1cncc(-c2ncc(NC[C@@H]3CCCN3)c(Oc3ccc(OCF)cc3)n2)c1 [Cpd 260]
EC50 [1]: 0.3 µM
GTPγS δ-opioid receptor Rel Efficacy: 0.937

COc1ccc(Oc2nc(-c3cccnc3)ncc2N[C@@H]2CCCNC2)cc1 [Cpd 261]
EC50 [2]: 0.241 µM
GTPγS δ-opioid receptor Rel Efficacy: 0.979

COc1ccc(Oc2nc(-c3cnc(F)c(C)c3)ncc2NC[C@@H]2CCCN2)cc1 [Cpd 262]
EC50 [1]: 0.037 µM
GTPγS δ-opioid receptor Rel Efficacy: 0.957

COc1ccc(Oc2nc(-c3cc(C)cnc3C)ncc2NC[C@@H]2CCCN2)cc1 [Cpd 263]
EC50 [2]: 0.027 µM
GTPγS δ-opioid receptor Rel Efficacy: 0.869

COc1ccc(Oc2nc(-c3cnc(-c4cnc(Cl)c(C)c4)c(C)c3)ncc2NC[C@@H]2CCCN2)cc1 [Cpd 264]
EC50 [1]: 0.12 µM
GTPγS δ-opioid receptor Rel Efficacy: 1.036

COc1ccc(Oc2nc(-c3cnc(Cl)cc3C)ncc2NC[C@@H]2CCCN2)cc1 [Cpd 265]
EC50 [2]: 0.053 µM
GTPγS δ-opioid receptor Rel Efficacy: 1.024

COc1ccc(Oc2nc(-c3cnc(Cl)c(C)c3)ncc2NC[C@@H]2CCCN2)cc1 [Cpd 266]
EC50 [2]: 0.018 µM
GTPγS δ-opioid receptor Rel Efficacy: 1.041

COc1ccc(Oc2nc(-c3cccnc3)ncc2NC[C@H]2CCCCN2)cc1 [Cpd 267]
EC50 [1]: 0.121 µM
GTPγS δ-opioid receptor Rel Efficacy: 0.920

COc1ccc(Oc2nc(-c3cc(C)cnc3Cl)ncc2NC[C@@H]2CCCN2)cc1 [Cpd 268]
EC50 [2]: 0.081 µM
GTPγS δ-opioid receptor Rel Efficacy: 1.023

COc1ccc(Oc2nc(-c3cncc(CO)c3)ncc2NC[C@@H]2CCCN2)cc1 [Cpd 269, (5-{4-(4-Methoxy-phenoxy)-5-[(pyrrolidin-2-(S)-ylmethyl)-amino]-pyrimidin-2-yl}-pyridin-3-yl)-methanol]
EC50 [2]: 0.053 µM
GTPγS δ-opioid receptor Rel Efficacy: 0.984
